Values quoted from earlier work as cited in patent US6337320B1, “Reparatives for ultraviolet radiation skin damage” (Thione International, Inc., priority 1996, dated 2002).

Assays:
[1] = oral, prolonged periods
[2] = tested on: vitamin E deficient chicks

Compound: [Se] [selenium]
- dose at which selenium toxicities occur [1]: > 4000 micrograms per day

Compound: C[Se]CC[C@H](N)C(=O)O [selenomethionine]
- skin levels of selenium dependent glutathione peroxidase (patients with psoriasis; normal and psoriatic skin): unchanged
- increase in blood levels post treatment (patients with psoriasis; psoriasis patients with normal pretreatment selenium blood levels): 40%
- number of CD4+T-cells (patients with psoriasis; reticular dermis of the psoriatic lesions): statistically significant increase
- concentration of selenium in skin in areas of topical application (mice; lotion, topical vs comparable oral doses): greater than those of the experimental animals given comparable oral doses
- skin damage by ultraviolet irradiation (inflammation, pigmentation, onset and incidence of skin cancers) (mice; mice treated with selenomethionine, ultraviolet irradiation): significantly less skin damage
- selenium toxicity (mice; mouse, in vivo, po): no evidence of selenium toxicity
- protection against acute UV damage to the skin, as measured by the minimal erythema dose (human subjects; eight women, topical lotion 0.002%, 0.02% and 0.05%): effective
- plasma levels of selenium (human subjects; volunteers, topical application): remained unchanged
- in vivo lipid peroxidation in tissues [2]: inhibits

Compound: (−)epigallo catechin gallate [EGCG]
- hydrogen peroxide formation (human leukocytes): inhibits
